The record followed here is ChEMBL document CHEMBL1201862, “PubChem BioAssay data set” (2004).

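Protocol summary: plate cells (96-well), add compound at 5 concentrations, incubate 48 h, interpolate endpoints linearly. Abbreviation: GI50, concentration required for 50% inhibition of growth.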 Activity calls are given as the source filed them. Rule as the data show it: active = GI50 up to about 1.1 µM and inactive = higher.

Among the test systems are A549; BT-549; HOP-62; HOP-92; HT-29; IGROV-1; K562; LOX IMVI; MDA-N; Malme-3M; NCI-H460; OVCAR-8; PC-3; RPMI-8226; SK-MEL-2; SK-OV-3; SNB-19; SW-620; T47D; U-251.
Test in all cases: inhibition of tumour cell growth, NCI panel, 48 h

Turning to `CC1NC(=O)c2c(-c3ccccc3)nn(-c3ccccc3)c2NC1=O` (stereo not drawn), the GI50 in the experiment on A549, in the experiment with BT-549, in the experiment on HOP-62, with HOP-92, with HT-29 and in the experiment with IGROV-1 was > 100 µM (inactive) in each case. The GI50 in the experiment with K562, in the experiment with LOX IMVI, in the experiment on MDA-N, in the experiment with Malme-3M, in the experiment with NCI-H460 and in the experiment with OVCAR-8 was > 100 µM (inactive) throughout. Further, the GI50 in the experiment with PC-3, in the experiment with RPMI-8226, in the experiment on SK-MEL-2, with SK-OV-3, in the experiment on SNB-19 and in the experiment on SW-620 was > 100 µM (inactive) each time. Further, the GI50 in the experiment with T47D and with U-251 was > 100 µM (inactive) each time.

On to `C[C@]12CC[C@@H]3c4cc(C=O)c(OCc5ccccc5)cc4CC[C@H]3[C@@H]1CCC2OCc1ccccc1` (stereo partly drawn), for which the GI50 in the experiment with A549 is 60.7 µM (inactive); in the experiment on BT-549, > 100 µM (inactive); in the experiment on HOP-62, > 100 µM (inactive); in the experiment with HOP-92, > 100 µM (inactive); in the experiment on HT-29, > 100 µM (inactive); in the experiment with K562, > 100 µM (inactive). Further, the GI50 is > 100 µM (inactive) with LOX IMVI; > 100 µM (inactive) with MDA-N; > 100 µM (inactive) in the experiment with NCI-H460; > 100 µM (inactive) in the experiment on OVCAR-8; 56.6 µM (inactive) in the experiment on PC-3; > 100 µM (inactive) in the experiment on RPMI-8226. Besides, the GI50 in the experiment with SK-MEL-2, in the experiment with SK-OV-3, in the experiment on SW-620, in the experiment with T47D and in the experiment with U-251 was > 100 µM (inactive) each time.

In the case of `Cc1ccc(NC(=S)N/N=C(/c2ccccc2)c2ccccn2)cc1`, the GI50 in the experiment with A549 was 0.108 µM (active); with BT-549, 4.25 µM (inactive); in the experiment with HOP-62, 0.16 µM (active); with HOP-92 it was 0.278 µM (active); in the experiment on HT-29, 0.0541 µM (active); with IGROV-1, < 0.0173 µM (active). For the same compound, the GI50 in the experiment on K562 is < 0.0117 µM (active); with LOX IMVI, 0.0346 µM (active); in the experiment with MDA-N, 0.708 µM (active); in the experiment with NCI-H460 it was 0.117 µM (active); with OVCAR-8 it was 0.0569 µM (active); in the experiment with PC-3 it was < 0.0154 µM (active). In addition, the GI50 was < 0.0161 µM (active) in the experiment on RPMI-8226; 4.52 µM (inactive) with SK-MEL-2; 0.0308 µM (active) with SK-OV-3; 3.27 µM (inactive) in the experiment with SNB-19; < 0.0183 µM (active) in the experiment with SW-620; < 0.0509 µM (active) in the experiment on T47D. For the same compound, the GI50 in the experiment with U-251 was 0.0265 µM (active).

Take `COc1ccc(/C=C/C(=O)c2ccccc2)cc1OC`: the GI50 in the experiment with A549 was 20.9 µM (inactive); with BT-549, 18.2 µM (inactive); in the experiment on HOP-62, 15.4 µM (inactive); in the experiment with HOP-92, 18.5 µM (inactive); in the experiment with HT-29, 5.3 µM (inactive); in the experiment with IGROV-1, 17.2 µM (inactive). Besides, the GI50 was 3.21 µM (inactive) with K562; 5.46 µM (inactive) in the experiment with LOX IMVI; 4.13 µM (inactive) with MDA-N; 16.7 µM (inactive) in the experiment with Malme-3M; 16.6 µM (inactive) in the experiment on NCI-H460; 16.3 µM (inactive) in the experiment on OVCAR-8. The GI50 was 11.3 µM (inactive) in the experiment with PC-3; 7.41 µM (inactive) in the experiment on RPMI-8226; 17.3 µM (inactive) in the experiment on SK-MEL-2; 14.2 µM (inactive) with SK-OV-3; 11.2 µM (inactive) in the experiment with SNB-19; 4.23 µM (inactive) with SW-620. Also, the GI50 with T47D is 10.8 µM (inactive); in the experiment on U-251 it was 9.59 µM (inactive).

On to `C=C1CC(COc2cc(=O)oc3ccccc23)(c2ccccc2)OC1=O` (stereo not drawn), for which the GI50 is 11.2 µM (inactive) with A549; 1.53 µM (inactive) in the experiment on BT-549; 8.53 µM (inactive) with HOP-62; 1.01 µM (active) with HOP-92; 1.38 µM (inactive) in the experiment on HT-29; 1.51 µM (inactive) in the experiment with IGROV-1. Further, the GI50 with K562 was 0.637 µM (active); in the experiment on LOX IMVI it was 1.45 µM (inactive); with MDA-N, 2.05 µM (inactive); with Malme-3M, 1.33 µM (inactive); in the experiment with NCI-H460, 9.29 µM (inactive); with OVCAR-8 it was 1.86 µM (inactive). Besides, the GI50 in the experiment on PC-3 is 1.95 µM (inactive); in the experiment on RPMI-8226, 0.507 µM (active); in the experiment with SK-MEL-2, 1.08 µM (active); with SK-OV-3 it was 3.27 µM (inactive); in the experiment on SNB-19, 16.4 µM (inactive); in the experiment on SW-620, 1.17 µM (inactive). Also, the figures for the GI50 with T47D and in the experiment with U-251 were 2.25 µM (inactive) and 9.4 µM (inactive), respectively.

Turning to `OC1C=C2C3CN(Cc4cc5c(cc43)OCO5)[C@H]2C[C@@H]1O` (stereo partly drawn), the GI50 with A549 was 3.74 µM (inactive); in the experiment on BT-549, 2.13 µM (inactive); in the experiment with HOP-62, 6.84 µM (inactive); in the experiment on HOP-92, 5.31 µM (inactive); in the experiment with HT-29, 3.69 µM (inactive); in the experiment on IGROV-1 it was 4.02 µM (inactive). Also, the GI50 was 4.31 µM (inactive) with K562; 4.06 µM (inactive) in the experiment on LOX IMVI; 3.89 µM (inactive) in the experiment with MDA-N; 7.23 µM (inactive) in the experiment with Malme-3M; 2.28 µM (inactive) with NCI-H460; 5.04 µM (inactive) in the experiment with OVCAR-8. The GI50 with PC-3 was 2.19 µM (inactive); in the experiment on RPMI-8226, 6.93 µM (inactive); in the experiment on SK-MEL-2, 3.2 µM (inactive); with SK-OV-3, 3.82 µM (inactive); in the experiment with SNB-19, 4.62 µM (inactive); in the experiment with SW-620, 5.57 µM (inactive). Further, the GI50 in the experiment with T47D was 1.16 µM (inactive); with U-251 it was 4.86 µM (inactive).

With `O=C1NC(=S)NC(=O)C1=C(O)Nc1ccccc1`, the GI50 in the experiment with A549 is 24.1 µM (inactive); in the experiment with BT-549, 12.1 µM (inactive); with HOP-62, 23.2 µM (inactive); with HOP-92 it was 8.34 µM (inactive); with HT-29, 47.4 µM (inactive); in the experiment with IGROV-1, 32 µM (inactive). The GI50 in the experiment with K562 was 27.7 µM (inactive); in the experiment on LOX IMVI, 23.3 µM (inactive); with MDA-N, 30 µM (inactive); in the experiment with Malme-3M, 25.8 µM (inactive); in the experiment with NCI-H460, 22.7 µM (inactive); with OVCAR-8, 27.8 µM (inactive). The GI50 is 15 µM (inactive) in the experiment with PC-3; 27.4 µM (inactive) in the experiment on RPMI-8226; 35.9 µM (inactive) in the experiment on SK-MEL-2; 38.9 µM (inactive) in the experiment on SK-OV-3; 25.8 µM (inactive) in the experiment with SNB-19; 29.2 µM (inactive) in the experiment with SW-620. Also, the GI50 in the experiment with T47D was 28.2 µM (inactive); with U-251, 27.5 µM (inactive).

As to `COC(=O)c1sc(=S)sc1SCc1cccc(CSc2sc(=S)sc2C(=O)OC)c1`, the GI50 with BT-549 was 26.9 µM (inactive); in the experiment with HOP-62 it was 16.1 µM (inactive); in the experiment on HOP-92, 29.4 µM (inactive); with HT-29 it was > 100 µM (inactive); with IGROV-1, 60.7 µM (inactive); in the experiment with K562 it was 79.8 µM (inactive). The GI50 with LOX IMVI, in the experiment with MDA-N, in the experiment on Malme-3M, with NCI-H460, in the experiment on OVCAR-8 and with PC-3 was > 100 µM (inactive) each time. For the same compound, the GI50 in the experiment on RPMI-8226 is > 100 µM (inactive); in the experiment on SK-MEL-2, 38.8 µM (inactive); in the experiment with SK-OV-3 it was 19.6 µM (inactive); with SNB-19 it was 26.8 µM (inactive); in the experiment on SW-620, > 100 µM (inactive); in the experiment with T47D, > 100 µM (inactive). In addition, in the experiment with U-251, the GI50 is 25.3 µM (inactive).

With `CSc1ncc2c(C#N)c3[nH]c4ccccc4n3c(=O)c2n1`, the GI50 is 20.6 µM (inactive) in the experiment on BT-549; 19.8 µM (inactive) with HOP-62; 4.2 µM (inactive) with HOP-92; 18.1 µM (inactive) in the experiment with IGROV-1; 5.18 µM (inactive) with K562; 21.7 µM (inactive) in the experiment with LOX IMVI. The GI50 in the experiment with MDA-N is 24.3 µM (inactive); with NCI-H460 it was 13.3 µM (inactive); with OVCAR-8 it was 7.85 µM (inactive); with PC-3 it was 5.83 µM (inactive); in the experiment with RPMI-8226, 1.88 µM (inactive); in the experiment with SK-MEL-2, 8.49 µM (inactive). In addition, the GI50 is 29.4 µM (inactive) in the experiment with SK-OV-3; 16.9 µM (inactive) in the experiment on SNB-19; 23.6 µM (inactive) in the experiment with SW-620; 22.9 µM (inactive) in the experiment with T47D; 15.8 µM (inactive) with U-251.

For `C[C@]12CC/C(=N\OCCN3CCCC3)C=C1CCC1C2CC[C@@]2(C)C1CC[C@]2(C)O` (stereo partly drawn), the GI50 with A549 is 11.5 µM (inactive); in the experiment on BT-549, 10.2 µM (inactive); in the experiment with HOP-62, 13.1 µM (inactive); with HOP-92, 11.7 µM (inactive); in the experiment on HT-29, 1.25 µM (inactive); in the experiment on IGROV-1, 8.95 µM (inactive). For the same compound, the GI50 in the experiment on K562 is 2.4 µM (inactive); with LOX IMVI, 4.33 µM (inactive); in the experiment with MDA-N, 2.56 µM (inactive); in the experiment with Malme-3M it was 5.21 µM (inactive); with NCI-H460 it was 3.97 µM (inactive); in the experiment on OVCAR-8, 14 µM (inactive). The GI50 was 7.29 µM (inactive) with PC-3; 2.83 µM (inactive) with RPMI-8226; 16.4 µM (inactive) in the experiment with SK-MEL-2; 18.5 µM (inactive) with SK-OV-3; 14.7 µM (inactive) with SNB-19; 12.3 µM (inactive) in the experiment on T47D. Moreover, the GI50 in the experiment with U-251 is 7.11 µM (inactive).

Consider `O=C1c2cccc(NCCCNCCO)c2C(=O)c2cccc(NCCCNCCO)c21`, for which the GI50 with A549 is 2 µM (inactive); in the experiment on BT-549, 2.05 µM (inactive); in the experiment on HOP-62, 1.96 µM (inactive); in the experiment on HOP-92, 1.55 µM (inactive); in the experiment with HT-29, 2.02 µM (inactive); in the experiment with IGROV-1, 2.81 µM (inactive). For the same compound, the GI50 in the experiment on LOX IMVI is 2.29 µM (inactive); with MDA-N it was 1.71 µM (inactive); in the experiment on NCI-H460 it was 1.68 µM (inactive); in the experiment on OVCAR-8, 2.16 µM (inactive); with PC-3, 2.41 µM (inactive); in the experiment on RPMI-8226, 2.44 µM (inactive). The GI50 in the experiment on SK-MEL-2 is 1.85 µM (inactive); in the experiment with SK-OV-3, 2.25 µM (inactive); with SNB-19 it was 1.15 µM (inactive); in the experiment on SW-620 it was 2.4 µM (inactive); in the experiment on T47D, 3.27 µM (inactive).
